# Assay results taken from patent US9693992B2 (MannKind Corporation, priority 2010, dated 2017).
# Molecular target: IRE-1α (Homo sapiens (Human), UniProt O75460)
# Assay: Cellular EC50: endogenous XBP-1 splicing in myeloma cells (MM.1s, DTT stress, RT-PCR)
# Type: cell-based
# Details: average cellular EC50, XBP-1 splicing in myeloma cells
# Description: Human myeloma MM.1s cells are incubated with a compound for 1.25 hours before stressing the cells with 2 mM dithiothreitol (DTT). After an additional 45 minutes (2 hours total) with compound and DTT, the cells are harvested with TRIZOL® (a mono-phasic solution of phenol and guanidine isothiocyanate), and total RNA is prepared as directed by the manufacturer (Invitrogen). Human XBP-1 is amplified by RT-PCR with the following primers, which flank the 26 base unconventional intron excised by IRE-1α:
# RT-PCR of unstressed (U) cells then generates the upper band. When cells are stressed (S) with the endoplasmic reticulum (ER) stressing agent DTT, IRE-1α is activated due to accumulating unfolded protein and the resulting RT-PCR product is 26 base pairs shorter.
# Compounds which pass specificity assays are assayed for cellular EC50 using endogenous XBP-1 splicing in myeloma cells. XBP-1 is regulated through the excision of a 26 nucleotide intron from the XBP-1 mRNA by the highly specific endoribonuclease activity of IRE-1α. […] This splicing event is used to measure IRE-1α activity on XBP-1 mRNA in cells and tissues.
# Briefly, compounds are incubated in the presence or absence of an ER stress agent (e.g., DTT), and the ratio of XBP-1u (unspliced) to XBP-1s (spliced) is quantified by RT-PCR. The ED50 is determined as the 50% XBP-1s to total XPB-1 levels.
# Sequence of IRE-1α (O75460 19-977): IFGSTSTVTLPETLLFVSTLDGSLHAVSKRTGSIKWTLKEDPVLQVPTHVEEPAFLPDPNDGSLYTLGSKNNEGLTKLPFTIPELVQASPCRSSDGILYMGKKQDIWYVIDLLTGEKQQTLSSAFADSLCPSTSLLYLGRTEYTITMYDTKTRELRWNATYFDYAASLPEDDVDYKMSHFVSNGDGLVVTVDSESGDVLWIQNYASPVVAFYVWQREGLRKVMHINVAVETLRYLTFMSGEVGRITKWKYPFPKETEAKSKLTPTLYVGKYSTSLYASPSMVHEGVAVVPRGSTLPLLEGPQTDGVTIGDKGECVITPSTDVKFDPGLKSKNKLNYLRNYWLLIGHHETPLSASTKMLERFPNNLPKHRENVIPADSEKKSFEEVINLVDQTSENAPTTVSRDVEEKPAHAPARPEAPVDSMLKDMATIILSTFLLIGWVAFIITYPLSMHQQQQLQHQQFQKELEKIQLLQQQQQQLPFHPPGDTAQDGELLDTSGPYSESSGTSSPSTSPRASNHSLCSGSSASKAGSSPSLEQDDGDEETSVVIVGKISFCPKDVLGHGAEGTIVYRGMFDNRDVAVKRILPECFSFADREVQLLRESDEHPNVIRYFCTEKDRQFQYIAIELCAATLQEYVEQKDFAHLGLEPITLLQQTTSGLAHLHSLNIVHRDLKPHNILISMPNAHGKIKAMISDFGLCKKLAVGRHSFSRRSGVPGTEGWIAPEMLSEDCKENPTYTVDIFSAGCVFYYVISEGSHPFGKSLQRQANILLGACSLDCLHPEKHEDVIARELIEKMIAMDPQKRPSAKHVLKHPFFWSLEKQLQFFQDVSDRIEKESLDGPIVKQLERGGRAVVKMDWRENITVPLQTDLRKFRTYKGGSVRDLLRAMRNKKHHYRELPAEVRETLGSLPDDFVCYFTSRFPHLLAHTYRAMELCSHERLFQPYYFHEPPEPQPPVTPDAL
row,EC50,Structure (SMILES)
1,< 10 µM,COCCOc1cc(O)c(C=O)c2oc(=O)c(C)c(C)c12 [Example 165]
2,< 10 µM,COCCOc1cc(O)c(C=O)c2oc(=O)c(CCC(=O)N3CCN(C)CC3)c(C)c12 [Example 154]
3,< 10 µM,Cc1c(-c2ccc(C(=O)N3CCOCC3)cc2)c(=O)oc2c(C=O)c(O)ccc12 [Example 12]
4,< 10 µM,Cc1c(-c2cccc(C(=O)NCCN3CCOCC3)c2)c(=O)oc2c(C=O)c(O)ccc12 [Example 11]
5,< 10 µM,COCc1cc(=O)oc2c(C=O)c(O)cc(OC)c12 [Example 122]
6,< 10 µM,C=CCc1c(C)c2c(OC)cc(O)c(C=O)c2oc1=O [Example 126]
7,< 10 µM,CCOC(=O)CCc1nc2c(C=O)c(O)ccc2n1C [Example 245]
8,> 10 µM,COc1cc2c(C)c(CCC(=O)NCCO)c(=O)oc2c(C=O)c1O [Example 147]
9,> 10 µM,O=Cc1c(O)ccc2sc(C(=O)N3CCOCC3)cc12 [Example 259]
10,< 10 µM,CN1CCC(NC(=O)CCc2nc3c(C=O)c(O)ccc3[nH]2)CC1 [Example 233]
11,< 10 µM,CCNC(=O)Cc1c(C)c2cc(OC)c(O)c(C=O)c2oc1=O [Example 169]
12,> 10 µM,CCNC(=O)CCc1c(C)oc2c(C=O)c(O)c(OC)cc2c1=O [Example 213]
13,> 10 µM,CCNC(=O)CCc1nc2c(C=O)c(O)ccc2o1 [Example 252]
14,< 10 µM,Cc1cc(=O)oc2c(C=O)c(O)c(Cl)cc12 [Example 22]
15,< 10 µM,O=Cc1c(O)ccc2nc(-c3ccc(C(=O)NCCN4CCOCC4)cc3)ccc12 [Example 45]
16,< 10 µM,COCCNC(=O)CCc1c(C)c2c(OCCOC)cc(O)c(C=O)c2oc1=O [Example 152]
17,< 10 µM,COc1cc(O)c(C=O)c2oc(=O)c(CCC(=O)N3CCN(C)CC3)c(C)c12 [Example 193]
18,< 10 µM,COCCOc1cc2c(C)c(CC(=O)NCCN3CCOCC3)c(=O)oc2c(C=O)c1O [Example 187]
19,< 10 µM,CCNC(=O)Cc1c(C)oc2c(C=O)c(O)ccc2c1=O [Example 223]
20,> 10 µM,COCCOc1cc2c(C)c(CCC(=O)NCCN3CCOCC3)c(=O)oc2c(C=O)c1O [Example 186]
21,< 10 µM,COCCNC(=O)CCc1cc2c(C=O)c(O)ccc2s1 [Example 266]

row,EC50,Structure (SMILES)
1,< 10 µM,COc1cc(O)c(C=O)c2oc(=O)c(CC(=O)NCCN3CCOCC3)c(C)c12 [Example 179]
2,< 10 µM,COCCOCCc1c(C)c2c(OC)cc(O)c(C=O)c2oc1=O [Example 145]
3,< 10 µM,COc1cc2c(C)c(-c3ccc(C(=O)N4CCN(C)CC4)cc3)c(=O)oc2c(C=O)c1O [Example 111]
4,> 10 µM,COCc1c(CCC(=O)NCCN2CCOCC2)c(=O)oc2c(C=O)c(O)c(OC)cc12 [Example 140]
5,> 10 µM,Cc1oc2c(C=O)c(O)ccc2c(=O)c1CCC(=O)NCCN(C)C [Example 218]
6,< 10 µM,COCCNC(=O)CCc1c(C)c2cc(OC)c(O)c(C=O)c2oc1=O [Example 171]
7,> 10 µM,Cn1c(CCC(=O)O)nc2c(C=O)c(O)ccc21 [Example 246]
8,< 10 µM,O=Cc1c(O)ccc2sc(C(=O)NCCN3CCOCC3)cc12 [Example 262]
9,< 10 µM,COc1cc2c(C)c(-c3ccc(N4CCN(C)CC4)nc3)c(=O)oc2c(C=O)c1O [Example 113]
10,> 10 µM,COCCNC(=O)CCc1c(C)c2cc(OCCN3CCOCC3)c(O)c(C=O)c2oc1=O [Example 202]
11,< 10 µM,CCNC(=O)Cc1c(C)oc2c(C=O)c(O)c(OC)cc2c1=O [Example 209]
12,> 10 µM,COCCOc1cc2c(C)c(CCC(=O)NCCN(C)C)c(=O)oc2c(C=O)c1O [Example 185]
13,< 10 µM,COCCNC(=O)Cc1c(C)c2c(OCCOC)cc(O)c(C=O)c2oc1=O [Example 159]
14,> 10 µM,O=Cc1c(O)ccc2[nH]c(CCC(=O)N3CCOCC3)nc12 [Example 232]
15,< 10 µM,Cc1c(C)c2cc(OCCN3CCOCC3)c(O)c(C=O)c2oc1=O [Example 203]
16,> 10 µM,O=Cc1c(O)ccc2[nH]c(C(=O)N3CCOCC3)cc12 [Example 274]
17,< 10 µM,CN(C)CCNC(=O)CCc1cc2c(C=O)c(O)ccc2s1 [Example 271]
18,< 10 µM,COCCOc1cc2c(C)c(CC(=O)N3CCOCC3)c(=O)oc2c(C=O)c1O [Example 188]
19,< 10 µM,CCNC(=O)Cc1c(C)c2cc(OCCOC)c(O)c(C=O)c2oc1=O [Example 191]
20,< 10 µM,Cc1c(-c2ccc(N3CCN(C)CC3)nc2)c(=O)oc2c(C=O)c(O)ccc12 [Example 14]
21,< 10 µM,CCNC(=O)CCc1c(C)c2cc(OC)c(O)c(C=O)c2oc1=O [Example 174]

row,EC50,Structure (SMILES)
1,< 10 µM,COc1cc2c(C)c(-c3ccc(N4CCOCC4)nc3)c(=O)oc2c(C=O)c1O [Example 114]
2,< 10 µM,COc1cc(O)c(C=O)c2oc(=O)c(CC(=O)N3CCOCC3)c(C)c12 [Example 177]
3,< 10 µM,Cc1c(CCC(=O)NCCN2CCOCC2)c(=O)oc2c(C=O)c(O)ccc12 [Example 201]
4,> 10 µM,Cc1nc(N2CCc3c(ccc(O)c3C=O)C2)sc1C(=O)NC1CCNCC1 [Example 35]
5,> 10 µM,O=Cc1c(O)ccc2cc(C(=O)O)c(=O)oc12 [Example 8]
6,< 10 µM,COCCNC(=O)Cc1c(C)c2cc(OC)c(O)c(C=O)c2oc1=O [Example 166]
7,> 10 µM,COCCNC(=O)c1cc2c(C=O)c(O)ccc2[nH]1 [Example 273]
8,< 10 µM,COc1cc(O)c(C=O)c2oc(=O)c(CC(=O)NCCN(C)C)c(C)c12 [Example 180]
9,> 10 µM,COCCNC(=O)c1cc2c(C=O)c(O)ccc2o1 [Example 282]
10,< 10 µM,COCCNC(=O)CCc1c(C)oc2c(C=O)c(O)ccc2c1=O [Example 215]
11,< 10 µM,COc1cc2c(C(F)(F)F)cc(=O)oc2c(C=O)c1O [Example 197]
12,> 10 µM,CCNC(=O)CCc1c(C)c2cc(OCCN3CCOCC3)c(O)c(C=O)c2oc1=O [Example 204]
13,> 10 µM,Cc1oc2c(C=O)c(O)ccc2c(=O)c1CCC(=O)N1CCN(C)CC1 [Example 88]
14,> 10 µM,COc1cc2c(=O)c(CC(=O)N3CCOCC3)c(C)oc2c(C=O)c1O [Example 207]
15,> 10 µM,COC(=O)Cc1cc2c(C=O)c(O)ccc2s1 [Example 264]
16,> 10 µM,O=Cc1c(O)ccc2nc(SCC(=O)O)[nH]c12 [Example 63]
17,< 10 µM,COc1cc(O)c(C=O)c2oc(=O)c(C)c(CN(C)C)c12 [Example 135]
18,< 10 µM,CN1CCN(C(=O)c2ccc(-c3ccc4c(C=O)c(O)ccc4n3)cc2)CC1 [Example 41]
19,< 10 µM,O=Cc1c(O)ccc2nc(-c3ccc(C(=O)N4CCOCC4)cc3)ccc12 [Example 44]
20,> 10 µM,COCCOc1cc(O)c(C=O)c2oc(=O)c(CCC(=O)NCCN(C)C)c(C)c12 [Example 157]
21,< 10 µM,COc1cc2c(C)c(-c3ccc(C(=O)N4CCOCC4)s3)c(=O)oc2c(C=O)c1O [Example 142]

row,EC50,Structure (SMILES)
1,< 10 µM,COCCOCCc1c(C)c2cc(OC)c(O)c(C=O)c2oc1=O [Example 127]
2,> 10 µM,Cn1c(CCC(=O)N2CCOCC2)nc2c(C=O)c(O)ccc21 [Example 242]
3,< 10 µM,O=Cc1c(O)ccc2oc(CCC(=O)NCCN3CCOCC3)nc12 [Example 253]
4,> 10 µM,CCNC(=O)c1cc2c(C=O)c(O)ccc2[nH]1 [Example 276]
5,< 10 µM,COc1cc2c(C)c(CCC(=O)N3CCOCC3)c(=O)oc2c(C=O)c1O [Example 172]
6,< 10 µM,Cc1c(-c2ccc(C(=O)N(C)C)cc2)c(=O)oc2c(C=O)c(O)ccc12 [Example 17]
7,< 10 µM,CN1CCN(C(=O)c2cnc(-c3cc4ccc(O)c(C=O)c4oc3=O)s2)CC1 [Example 107]
8,> 10 µM,COc1cc2c(=O)c(CCC(=O)NCCN(C)C)c(C)oc2c(C=O)c1O [Example 214]
9,> 10 µM,O=Cc1c(O)ccc2c1CCN(Cc1ccccc1)C2 [Example 28]
10,> 10 µM,CCNC(=O)CCc1nc2c(C=O)c(O)ccc2[nH]1 [Example 234]
11,< 10 µM,COc1cc2c(CN3CCOCC3)c(C)c(=O)oc2c(C=O)c1O [Example 132]
12,> 10 µM,Cc1oc2c(C=O)c(O)ccc2c(=O)c1CCC(=O)NCCN1CCOCC1 [Example 219]
13,> 10 µM,CCc1cc2c(C)c(-c3ccc(C(=O)N4CCOCC4)cc3)c(=O)oc2c(C=O)c1O [Example 119]
14,< 10 µM,COCCc1c(C)c2cc(OC)c(O)c(C=O)c2oc1=O [Example 125]
15,> 10 µM,O=Cc1c(O)ccc2oc(C(=O)O)cc12 [Example 281]
16,< 10 µM,COc1cc2c(CN(C)C)c(C)c(=O)oc2c(C=O)c1O [Example 133]
17,> 10 µM,CCc1cc2c(=O)c(-c3nc(C)cs3)coc2c(C=O)c1O [Example 39]
18,< 10 µM,COCCOc1cc(O)c(C=O)c2oc(=O)c(CCC(=O)N3CCOCC3)c(C)c12 [Example 153]
19,< 10 µM,[2H]C(=O)c1c(O)ccc2c(C)c(-c3ccc(C(=O)NCCN4CCOCC4)cc3)c(=O)oc12 [Example 116]
20,> 10 µM,Cc1nc(N2CCc3c(ccc(O)c3C=O)C2)sc1C(=O)NC1CCN(C)CC1 [Example 36]

row,Structure (SMILES),EC50
1,COc1cc(O)c(C=O)c2oc(=O)c(CC(=O)N3CCN(C)CC3)c(C)c12 [Example 178],< 10 µM
2,Cc1c(CC(=O)N2CCN(C)CC2)c(=O)oc2c(C=O)c(O)ccc12 [Example 130],< 10 µM
